{"source": "patent US9597393B2", "about": "“Synthetic toll-like receptor-4 (TLR-4) agonist peptides” (AV Therapeutics, Inc., priority 2012, dated 2017)", "key": {"prostate tumor": {"system": "prostate tumor", "settings": "in vivo, administered with an adjuvant; cited from earlier work"}, "[1]": {"assay": "Immunogenicity of the adjuvant peptide itself in mice", "format": "in vivo", "settings": "two groups of 3 mice vaccinated with 25 ng of peptide alone; data not shown", "excerpt": "This significant increase in X-15 specific antibody concentration with RS09 was observed on day 28 (white bar) post vaccination as shown in FIG. 6. […] Thus, while RS01 and RS09 were not immunogenic at the concentration used, RS09 was capable of enhancing production of X-15 specific antibodies."}, "TLR-4": {"molecular_target": "T1, TLR-4 (Homo sapiens, UniProt O00206)", "T1 construct": "host or cells: HEK-BLUE-4 (transgenic HEK293)", "T1 sequence (O00206 24-839)": "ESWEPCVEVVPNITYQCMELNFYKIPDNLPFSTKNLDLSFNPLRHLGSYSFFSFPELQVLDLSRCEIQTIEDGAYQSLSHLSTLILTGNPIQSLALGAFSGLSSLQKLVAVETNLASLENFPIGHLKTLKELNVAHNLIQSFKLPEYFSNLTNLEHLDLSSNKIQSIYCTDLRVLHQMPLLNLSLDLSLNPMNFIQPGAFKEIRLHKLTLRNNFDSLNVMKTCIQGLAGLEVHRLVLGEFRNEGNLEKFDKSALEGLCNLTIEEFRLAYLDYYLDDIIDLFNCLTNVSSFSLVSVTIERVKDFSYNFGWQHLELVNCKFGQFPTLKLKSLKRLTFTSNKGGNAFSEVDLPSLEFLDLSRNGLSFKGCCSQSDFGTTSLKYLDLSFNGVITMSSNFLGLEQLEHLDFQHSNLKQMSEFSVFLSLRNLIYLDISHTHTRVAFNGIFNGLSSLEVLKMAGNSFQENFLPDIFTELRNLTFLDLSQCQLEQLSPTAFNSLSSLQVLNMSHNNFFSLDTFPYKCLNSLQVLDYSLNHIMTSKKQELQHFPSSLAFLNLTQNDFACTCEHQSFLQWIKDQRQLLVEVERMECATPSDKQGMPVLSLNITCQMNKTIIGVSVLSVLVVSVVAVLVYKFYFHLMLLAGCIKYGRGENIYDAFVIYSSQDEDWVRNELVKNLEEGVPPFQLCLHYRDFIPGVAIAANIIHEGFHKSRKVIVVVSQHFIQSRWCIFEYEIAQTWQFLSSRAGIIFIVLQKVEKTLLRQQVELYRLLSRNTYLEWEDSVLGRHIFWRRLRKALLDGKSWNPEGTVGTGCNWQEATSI", "T1 sequence (Q9Y6Y9 17-160 partner limits assumed)": "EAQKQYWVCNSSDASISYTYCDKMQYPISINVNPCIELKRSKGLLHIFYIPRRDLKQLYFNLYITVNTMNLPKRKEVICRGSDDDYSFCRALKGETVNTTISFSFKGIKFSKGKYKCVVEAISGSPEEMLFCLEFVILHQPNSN", "assay": "NF-κB activation (SEAP reporter) in HEK-BLUE-4 cells", "format": "cell-based", "settings": "peptide 1, 5 and 10 μg/ml", "description": "FIG. 2—LPS peptide mimics activate NF-κB in HEK-BLUE™-4. LPS peptide mimics were dissolved in endotoxin free water and added to 96-well plates at three concentrations; 1 μg/ml (black bar), 5 μg/ml (gray bar), and 10 μg/ml (white bar). HEK-BLUE™4 were then added to each well at a concentration of 5×10^4 cells per well in complete media. The supernatant was then harvested after 24 h and assayed for alkaline phosphatase secretion indicating activation of NF-κB. NF-κB activation is represented in FIG. 2A for peptides RS01-RS07 and in FIG. 2B for peptides RS08-RS12. LPS was used as a positive control in assaying all peptides for NF-κB activation. Absorbance was taken at 630 nm. Each experiment was repeated three times with similar results observed. The standard deviation shown above each sample represents three replicates in one experiment.\nThe twelve peptides were assayed for their ability to bind to TLR-4 and activate NF-κB using a transgenic HEK293 cell line known as HEK-BLUE™-4. This cell line is stably transfected to only express TLR-4 on its plasma membrane, with no other TLRs present. Detecting activation of NF-κB is made possible by placing secreted alkaline phosphatase (SEAP) under the control of the NF-κB promoter. Therefore, NF-κB activation leads to SEAP secretion, which is detected by an alkaline phosphatase substrate in cell culture media.\nThe LPS peptide mimics were dissolved in endotoxin free water (HyClone) at a concentration of 1 μg/ml with the exception of peptide 4 which was dissolved in a solution of 1% DMSO made in endotoxin free water at 1 μg/ml concentration. All of the peptide stock solutions and stored at −80° C. Each of the 12 peptides (RS01-RS12) was added to 96-well plates in triplicate in a total volume of 20 μl. The total volume required in each•well was made up with endotoxin free water (HyClone). […] After a noticeable color change, the absorbance was taken at 630 nm using the microplate reader (Bio-Rad). […]"}, "NF-κB [2]": {"system": "NF-κB", "assay": "Fluorescence microscopy of NF-κB nuclear translocation in RAW264.7", "format": "cell-based", "settings": "5 μg/ml, 30 min", "description": "FIG. 4—Fluorescence microscopy of NF-κB nuclear translocation. RAW264.7 macrophages were seeded in 8 well chamber slides at a density of 2×10^4 cells per well and stimulated with 5 μg/ml of either RS01 or RS09. After 30 min incubation, cells were fixed (4% para-formaldehyde), permeabilized (0.2% TRITON® X-100), blocked (10% goat serum/1% BSA), and incubated with anti-NF-κB followed by DAPI staining of nuclei. The stained cells were visualized using the Axiovert 200 M microscope with a 40× magnification. NF-KB (green) was more diffusely spread throughout the cytoplasm in control cells but appeared more circular in RS01, RS09, and LPS treated cells.\nHEK-BLUE™-4 and RAW264.7 cells were seeded in 8-chamber slides (BD Biosciences, Bedford, Mass.) at a density of 2×10^4 cells per well. Cells were allowed to adhere at 37° C. over night after which the cells were stimulated with LPS peptide mimics at various time points and subsequently processed for immunofluorescence. The cells were fixed with a 4% paraformaldehyde/PBS solution, followed by permeabilization with 0.2% TRITON® X-100, and blocked using a solution of 0.1% TRITON® X-100, 1% BSA, and 10% goat serum. […]"}, "RAW264.7 cells": {"system": "RAW264.7 cells", "assay": "Inflammatory cytokine secretion from RAW264.7 macrophages (antibody array)", "format": "cell-based, mouse", "settings": "24 h", "description": "FIG. 5—RAW264.7 secretes inflammatory cytokines in response to RS01 and RS09. RAW264.7 cells were seeded at a density of 1×10^6 cells per well of a six well plate followed by addition of either […] (FIG. 5A) or RS09 (FIG. 5B) and incubated for 24 h after which the culture media was collected. LPS was used as a positive control for both RS01 and RS09. Culture media was then analyzed for specific cytokines using an antibody array kit. […] Each cytokine is represented as an IDV value which was calculated by comparing the density of each spot with respect to the density of the internal positive controls. The antibody array represents a qualitative comparison of each cytokine and is […]. Each experiment was repeated three times with similar results observed. […]\nRAW264. […] The blots were then developed using ECL (Pierce) and detected on HyBlot CL™ autoradiography film (Denville Scientific). […]\nAlthough the values obtained for each cytokine are not quantitative but rather qualitative, they do show an increase in release of inflammatory cytokines. These values were calculated and presented as IDV, which is the density of each spot compared to the density of the internal positive controls present on each membrane. Values for the various cytokines and chemokines detected are presented in FIG. 5A for RS01 and FIG. 5B for RS09. […]"}, "NF-κB [3]": {"system": "NF-κB", "assay": "NF-κB nuclear translocation Western blot in non-TLR-4 expressing HEK293 (negative control cells)", "format": "cell-based", "settings": "HEK293 lacking TLR-4", "description": "FIG. 3—LPS peptide mimics lead to NF-κB nuclear translocation. Nuclear translocation studies of NF-κB were performed by Western blot analysis on both RAW264.7 (FIG. 3A), HEK-BLUE™-4 (FIG. 3B), and HEK293 (FIG. 3C) cells. Cells were stimulated with peptide, either RS01 or RS09, at a concentration of 5 μg/ml per 5×10^4 cells at various time points (15, 30, 60, and 120 min) Nuclear protein fractions were assayed for NF-κB while cytoplasmic proteins fractions were assayed for both NF-κB and IκB-α. HDAC was used as a nuclear protein loading control and actin was used as a cytoplasmic protein loading control.\nFor NF-KB nuclear translocation western blots, cytoplasmic and nuclear protein extracts were prepared from HEK-BLUE™-4, HEK293, and RAW264.7 cells (2×10^6 cells) using NE-PER, nuclear and cytoplasmic extraction reagent kit (PIERCE, Rockford, Ill.). The manufacturer's protocol was followed to separate cytoplasmic and nuclear fractions. Nuclear and cytoplasmic lysates (10 μg protein) were subjected to 12% SDS-PAGE under reducing conditions (presence of β-mercaptoethanol). […] After four washes with TBST and one wash with TBS, membranes were developed by ECL (Pierce) and detected on HyBlot CL™ autoradiography film (Denville Scientific, Inc, Metuchen, N.J.). […]"}, "[4]": {"assay": "Water solubility of peptide stock", "format": "physicochemical", "settings": "endotoxin free water; dissolved in 1% DMSO instead", "description": "The LPS peptide mimics were dissolved in endotoxin free water (HyClone) at a concentration of 1 μg/ml with the exception of peptide 4 which was dissolved in a solution of 1% DMSO made in endotoxin free water at 1 μg/ml concentration. All of the peptide stock solutions and stored at −80° C. Each of the 12 peptides (RS01-RS12) was added to 96-well plates in triplicate in a total volume of 20 μl. The total volume required in each•well was made up with endotoxin free water (HyClone). 5×10^4 HEK-BLUE™-4 cells (Invivogen, San Diego, Calif.) were added per well and incubated for approximately 20 h after which the supernatant from each well was collected and placed into a new 96-well plate. 180 μl of HEK-BLUE™ detection media (Invivogen), alkaline phosphatase detection substrate, was added to each well and incubated for 1-3 h at 37° C. After a noticeable color change, the absorbance was taken at 630 nm using the microplate reader (Bio-Rad).\nFor all peptides, three concentrations, 1 μg/ml (black bars), 5 μg/ml (gray bars), and 10 μg/ml (white bars) were used to activate HEK-BLUE™-4 cells. LPS (0.1 μg/ml) was used as a positive control."}}, "note": "Entries after “also recorded” stand apart in the source; their conditions may differ. Ends that are not written are not given here.", "data": [{"substance": "GQWQSGDRYWMETST (also: KLH conjugate) [Peptide X-15]", "values": [{"measurement": "prostate tumor protective properties", "setting": "prostate tumor", "result": "possess prostate tumor protective properties in vivo"}]}, {"substance": "QEINSSY [RS01, Gln Glu Ile Asn Ser Ser Tyr]", "values": [{"measurement": "antibody response to the adjuvant peptide (immunogenicity)", "setting": "[1]", "result": "no antibodies were produced"}]}, {"substance": "ELAPDSP [RS12]", "values": [{"measurement": "TLR-4 stimulation and NF-κB activation (alkaline phosphatase secretion, absorbance 630 nm)", "setting": "TLR-4", "result": "considered as positive for TLR-4 stimulation and NF-κB activation"}]}, {"substance": "SMPNPMV [RS03]", "values": [{"measurement": "TLR-4 stimulation and NF-κB activation (alkaline phosphatase secretion, absorbance 630 nm)", "setting": "TLR-4", "result": "considered as TLR-4 stimulating and hence activators of NF-κB"}]}, {"substance": "Lipopolysaccharide [LPS]", "values": [{"measurement": "NF-κB nuclear localization (immunofluorescence, DAPI merge)", "setting": "NF-κB [2]", "result": "nuclear localization of NF-κB was observed"}, {"measurement": "secretion of inflammatory cytokines and chemokines (IDV, qualitative)", "setting": "RAW264.7 cells", "result": "capable of inducing inflammatory cytokines and chemokines"}, {"measurement": "NF-κB nuclear translocation", "setting": "NF-κB [3]", "result": "do not activate the non-TLR-4 expressing HEK293 cells; also recorded: did not result in nuclear translocation"}]}, {"substance": "GLQQVLL [RS04, Gly Leu Gln Gln Val Leu Leu]", "values": [{"measurement": "water solubility", "setting": "[4]", "result": "not water soluble"}]}, {"substance": "APPHALS [RS09, Ala Pro Pro His Ala Leu Ser]", "values": [{"measurement": "antibody response to the adjuvant peptide (immunogenicity)", "setting": "[1]", "result": "no antibodies were produced"}]}, {"substance": "VVPTPPY [RS11]", "values": [{"measurement": "TLR-4 stimulation and NF-κB activation (alkaline phosphatase secretion, absorbance 630 nm)", "setting": "TLR-4", "result": "considered as positive for TLR-4 stimulation and NF-κB activation"}]}]}
